This note sets out measurements from patent US20080261999A1, “Azabicycloalkane Derivatives Useful as Nicotinic Acetylcholine Receptor Agonists” (priority 2005, published 2008).

In one test the target is T1, human α4β2 nAChRs (Homo sapiens, UniProt P17787+P43681).
T1 construct: expressed in transfected cells; host or cells: HEK-293
The experiment in a line: Nicotinic receptor radioligand binding SPA, [3H]-epibatidine, α4β2. How it is done: (§1) Cell pastes from large-scale production of HEK-293 cells expressing human α4β2, or α3β4 nAChRs are homogenised in 4 volumes of the appropriate buffer (50 mM Tris.HCl containing 150 mM NaCl and 5 mM KCl, pH 7.4). The homogenate is centrifuged twice (40,000 g, 10 minutes, 4° C.) and the pellets re-suspended in 4 volumes of Tris.HCl buffer after the first spin and 8 volumes after the second spin. The re-suspended homogenate is centrifuged (100 g, 10 minutes, 4° C.) and the supernatant kept and re-centrifuged (40,000 g, 20 minutes, 4° C.). The pellet is re-suspended in Tris.HCl buffer supplemented with 10% w/v sucrose. The membrane preparation is stored in 1 ml aliquots at −80° C. until required. The protein concentration of the membrane preparation is determined using a BCA protein assay reagent kit.
(§2) 96-well SPA radioligand binding assays are performed in a final volume of 250 μl Tris-HCl buffer (50 mM Tris-HCl, 150 mM NaCl, 5 mM KCl, pH 7.4) with 1 nM ((α4β2) or 2 nM (α3β4) [^3H]-epibatidine (53 Ci/mmol; Amersham); 1 mg/well ((α4β2) or 1.5 mg/well (α3β4) WGA-coated PVT SPA beads (Amersham) and 30 μg/well membrane protein for all 3 assay types. Non-specific binding (<10% for all 3 assay types) is determined using 10 μM epibatidine.
(§3) Reactions are allowed to equilibrate for 2-4 hours at room temperature prior to reading on a Trilux Scintillation counter (Perkin Elmer). […]

The target in a further test is T2, human α3β4 nAChRs (Homo sapiens, UniProt P30926+P32297).
T2 construct: expressed in transfected cells; host or cells: HEK-293
The experiment in a line: Nicotinic receptor radioligand binding SPA, [3H]-epibatidine, α3β4. The note with it: HEK-293 membranes, 2 nM [3H]-epibatidine. How it is done:
as §1, §2, §3

Another test deals with rat striatal slices. The experiment in a line: [3H] Dopamine release assay from rat striatal slices. The format is cell-based. How it is done:
[^3H] Dopamine Release Assay from Rat Striatal Slices
Release of [^3H]dopamine from rat striatal slices is performed as follows. Male Lister-Hooded rats (250-350 g) are sacrificed by exposure to CO2 followed by cervical dislocation. Striata from 2 rats is dissected and chopped 3 times at 150 μm using a Mcllwain tissue chopper, each time rotating the tissue through 60°. Slices are dispersed in Krebs bicarbonate buffer (118 mM NaCl, 2.4 mM KCl, 2.4 mM CaCl2.2H2O, 1.2 mM KH2PO4, 1.2 mM MgSO4.7H2O, 25 mM NaHCO3, 10 mM glucose, 1 mM ascorbic acid, gassed with 5% CO2/95% O2 for 1 h, pH 7.4) including […] pargyline, and incubated with [^3H]dopamine (50 nM) for 30 minutes at 37° C. […]
Optiphase Supermix (Wallac) scintillation fluid (170 μl) is added to each well of the collection plates prior to plates being heat sealed and radioactivity quantified using a Wallac 1450 Microbeta 96-well plate counter (Wallac Oy, Turku, Finland, counting efficiency 25%). Radioactivity remaining in the slices is measured by digestion of the tissue in 0.2 ml Solvable (Packard Biosciences) for 1 h followed by addition of 0.5 ml isopropyl alcohol and 4.5 ml Hlionic Fluor scintillation fluid (Packard Biosciences). Radioactivity was then quantified using a Wallac 1410 scintillation counter (Wallac Oy, Turku, Finland, counting efficiency 35%). […]

Structures are written as SMILES.

T1 sequence (P43681 29-627): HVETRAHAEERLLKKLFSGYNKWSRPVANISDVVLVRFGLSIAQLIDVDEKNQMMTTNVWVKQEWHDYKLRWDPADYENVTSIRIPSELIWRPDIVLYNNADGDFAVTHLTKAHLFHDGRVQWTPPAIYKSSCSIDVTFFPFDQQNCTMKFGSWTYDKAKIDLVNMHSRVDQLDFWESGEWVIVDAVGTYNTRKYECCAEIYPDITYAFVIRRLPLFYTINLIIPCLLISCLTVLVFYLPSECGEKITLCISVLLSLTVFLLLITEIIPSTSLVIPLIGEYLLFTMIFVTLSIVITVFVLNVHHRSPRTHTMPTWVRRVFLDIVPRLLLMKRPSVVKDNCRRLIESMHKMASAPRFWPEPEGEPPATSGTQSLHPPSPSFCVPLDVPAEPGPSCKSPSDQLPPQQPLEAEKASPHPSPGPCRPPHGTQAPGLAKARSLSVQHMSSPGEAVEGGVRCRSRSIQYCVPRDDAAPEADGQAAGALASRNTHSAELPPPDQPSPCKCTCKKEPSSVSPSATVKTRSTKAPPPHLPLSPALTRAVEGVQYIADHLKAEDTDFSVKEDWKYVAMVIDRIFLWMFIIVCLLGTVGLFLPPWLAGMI
T1 sequence (P17787 26-502): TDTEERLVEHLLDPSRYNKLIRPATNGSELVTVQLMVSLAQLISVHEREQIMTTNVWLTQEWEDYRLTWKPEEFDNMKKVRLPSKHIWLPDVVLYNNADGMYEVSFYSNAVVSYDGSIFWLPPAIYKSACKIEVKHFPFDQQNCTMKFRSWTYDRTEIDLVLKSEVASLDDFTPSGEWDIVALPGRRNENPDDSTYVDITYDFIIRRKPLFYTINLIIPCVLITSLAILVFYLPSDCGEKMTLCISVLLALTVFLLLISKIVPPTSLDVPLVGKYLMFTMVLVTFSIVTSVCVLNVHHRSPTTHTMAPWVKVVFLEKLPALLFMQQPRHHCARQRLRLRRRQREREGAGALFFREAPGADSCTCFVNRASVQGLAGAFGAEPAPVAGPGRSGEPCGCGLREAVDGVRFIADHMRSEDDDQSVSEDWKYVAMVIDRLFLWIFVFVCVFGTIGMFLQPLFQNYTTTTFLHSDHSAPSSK
T2 sequence (P32297 32-505): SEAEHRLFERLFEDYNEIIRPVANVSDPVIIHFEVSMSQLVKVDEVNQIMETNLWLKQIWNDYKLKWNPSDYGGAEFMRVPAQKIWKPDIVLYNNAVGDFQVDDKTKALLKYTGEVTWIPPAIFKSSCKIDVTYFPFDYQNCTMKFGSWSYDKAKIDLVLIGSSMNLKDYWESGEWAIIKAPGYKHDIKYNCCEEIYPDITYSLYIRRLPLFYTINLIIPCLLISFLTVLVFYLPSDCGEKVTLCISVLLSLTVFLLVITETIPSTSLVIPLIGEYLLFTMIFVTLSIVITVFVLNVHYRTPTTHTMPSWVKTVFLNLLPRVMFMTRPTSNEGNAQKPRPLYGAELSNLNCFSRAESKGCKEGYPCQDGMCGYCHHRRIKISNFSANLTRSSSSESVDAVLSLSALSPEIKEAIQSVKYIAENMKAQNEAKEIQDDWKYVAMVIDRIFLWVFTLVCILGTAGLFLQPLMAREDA
T2 sequence (P30926 22-498): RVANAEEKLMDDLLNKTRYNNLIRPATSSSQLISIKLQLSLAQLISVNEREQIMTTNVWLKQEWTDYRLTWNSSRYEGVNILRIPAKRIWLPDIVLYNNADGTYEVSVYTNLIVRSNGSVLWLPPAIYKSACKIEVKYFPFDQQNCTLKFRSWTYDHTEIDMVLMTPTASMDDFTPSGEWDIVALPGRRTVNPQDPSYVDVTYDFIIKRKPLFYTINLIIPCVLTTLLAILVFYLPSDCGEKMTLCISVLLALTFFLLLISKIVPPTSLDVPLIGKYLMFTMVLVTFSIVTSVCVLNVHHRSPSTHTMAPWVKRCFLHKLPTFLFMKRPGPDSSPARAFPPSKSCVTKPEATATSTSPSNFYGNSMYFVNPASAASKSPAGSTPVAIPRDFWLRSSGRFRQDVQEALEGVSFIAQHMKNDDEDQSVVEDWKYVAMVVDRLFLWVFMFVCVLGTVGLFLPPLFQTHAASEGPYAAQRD

Usually Ki stands for a dissociation constant, usually derived from enzyme kinetics or from competition with a known ligand. A low value points to tighter binding. One may read the EC50 as the concentration at which the effect is half-maximal. A low value points to higher potency in that assay. On human α4β2 nAChRs (HEK-293 membranes, 1 nM [3H]-epibatidine), `Fc1cc(C2=CC3CNCC(C2)C3)cc(-c2ccoc2)c1` (centres unmarked) [Example 20] yielded a Ki of 5.37 nM. Further, the “Ki α3β4/Ki α4β2” value at human α4β2 nAChRs (selectivity for α4β2 over α3β4) was found to be 89.2. Besides, on human α3β4 nAChRs, the Ki turned out to be 479 nM. In the test with rat striatal slices, the EC50 amounted to 135 nM and the “Efficacy Dopamine release %” value stood at 41.7%.
